Results from ChEMBL document CHEMBL1134822, “Trifluoromethyl-containing 3-alkoxymethyl- and 3-aryloxymethyl-2-pyridinones are potent inhibitors of HIV-1 non-nucleoside reverse transcriptase” (Bioorg Med Chem Lett, 2001).

How the values were obtained:
[1] = biological target: Human immunodeficiency virus type 1 reverse transcriptase (Human immunodeficiency virus 1, UniProt Q72547); assay: Inhibition of the NNRTI HIV-1 enzyme by 50% using enzyme assay.
[2] = test system: Human immunodeficiency virus 1; assay: Antiviral activity against HIV-1 in MT-2 (human leukemia) cells in vitro.; format: functional
[3] = test system: HIV-1 reverse transcriptase (Human immunodeficiency virus 1); assay: Compound was evaluated for its ability to inhibit the NNRTI HIV-1 enzyme by 90% using whole cell assay
[4] = test system: HIV-1 reverse transcriptase (Human immunodeficiency virus 1); assay: Compound was evaluated for its ability to inhibit the mutant K103N V1081NNRTI HIV-1 enzyme
[5] = test system: HIV-1 reverse transcriptase (Human immunodeficiency virus 1); assay: Compound was evaluated for its ability to inhibit the mutant K103N L1001 NNRTI HIV-1 enzyme
[6] = test system: Human immunodeficiency virus type 1 reverse transcriptase (Human immunodeficiency virus 1), Q72547 [K103N,P225H]
[7] = test system: HIV-1 reverse transcriptase (Human immunodeficiency virus 1); assay: Compound was evaluated for its ability to inhibit the mutant K103N NNRTI HIV-1 enzyme

| Structure (SMILES) | IC50 [1] [µM] | IC90 [2] [nM] | also measured |
| --- | --- | --- | --- |
| CCc1cc(C(C#CC2CC2)(OCc2ccccc2)C(F)(F)F)c(=O)[nH]c1C (stereo not given) | 1.35 |  |  |
| CCc1cc(C(C#CC2CC2)(OCC2CC2)C(F)(F)F)c(O)nc1C (stereo not given) | 0.188 | 37 |  |
| CCc1cc(C(C#CC2CC2)(OCc2c(Cl)cccc2Cl)C(F)(F)F)c(O)nc1C (stereo not given) | 41.1 | 157 |  |
| Oc1ncccc1C(/C=C/C1CC1)(OCc1ccccc1)C(F)(F)F (stereo not given) | 16.7 | > 1400 |  |
| CCc1cc(C(C#CC2CC2)(OCc2ccc(Cl)cc2Cl)C(F)(F)F)c(O)nc1C (stereo not given) | 2.7 | 190 |  |
| CCc1cc(C(C#CC2CC2)(OCc2c(F)cccc2Cl)C(F)(F)F)c(O)nc1C (stereo not given) | 6.09 | 61 |  |
| CCc1cc(C(C#CC2CC2)(OCc2cc(OC)cc(OC)c2)C(F)(F)F)c(O)nc1C (stereo not given) | 3.84 | 579 |  |
| CCc1cc(C(C#CC2CC2)(OC)C(F)(F)F)c(O)nc1C (stereo not given) | 0.77 | 201 |  |
| CCc1cc(C(C#CC2CC2)(OCc2ccccc2)C(F)(F)F)c(O)nc1C (stereo not given) |  |  | IC90 [3]: 46 nM; IC90 [4]: 1210 nM; IC90 [5]: 668 nM; IC90 [6]: 283 nM; IC90 [7]: 113 nM |
| CCc1cc(C(C#CC2CC2)(OCC#N)C(F)(F)F)c(O)nc1C (stereo not given) | 1.84 | 1400 |  |
| CCCOC(C#CC1CC1)(c1cc(CC)c(C)nc1O)C(F)(F)F (stereo not given) | 0.105 | 32 |  |
| Oc1ncccc1C(C#CC1CC1)(OCc1ccccc1)C(F)(F)F (stereo not given) | 11.8 | 182 |  |
| Oc1nc2ccccc2cc1C(C#CC1CC1)(OCc1ccccc1)C(F)(F)F (stereo not given) | 36 | 579 |  |
| CCOC(C#CC1CC1)(c1cc(CC)c(C)nc1O)C(F)(F)F (stereo not given) | 0.183 | 95 |  |
| CCc1cc(C(C#CC2CC2)(OCc2c(F)cccc2F)C(F)(F)F)c(O)nc1C (stereo not given) | 0.613 | 49 |  |
| Oc1ncccc1C(/C=C/c1ccccc1)(OCc1ccccc1)C(F)(F)F (stereo not given) | 43.9 | > 1300 |  |
| Oc1ncccc1C(C#CC1CC1)(OCc1ccncc1)C(F)(F)F (stereo not given) | 8.11 | 431 |  |
| CCc1cc(NCc2nc3c(Cl)ccc(Cl)c3o2)c(O)nc1C [L-697661] |  | 50 |  |
| Oc1ncccc1C(C#Cc1ccccc1)(OCc1ccccc1)C(F)(F)F (stereo not given) | 11.7 | > 1300 |  |
| Oc1ncccc1C(C#CC1CC1)(Oc1cccc(Oc2ccccc2)c1)C(F)(F)F (stereo not given) | 24.3 | > 1140 |  |
| Oc1ncccc1C(C#CC1CC1)(OCc1cccnc1)C(F)(F)F (stereo not given) | 25.6 | > 1440 |  |
| CCc1cc(C(C#CC2CC2)(OCc2c(F)cccc2OC)C(F)(F)F)c(O)nc1C (stereo not given) | 1.95 | 160 |  |
| CCCCOC(C#CC1CC1)(c1cc(CC)c(C)nc1O)C(F)(F)F (stereo not given) | 0.129 | 42 |  |
| O=C1Nc2ccc(Cl)cc2[C@@](/C=C/C2CC2)(C(F)(F)F)N1 |  |  | IC90 [4]: 90 nM; IC90 [6]: 140 nM |
| Oc1ncccc1C(C#CC1CC1)(OCc1ccccn1)C(F)(F)F (stereo not given) | 26 | 1010 |  |
| O=C1Nc2ccc(Cl)cc2[C@@](C#CC2CC2)(C(F)(F)F)N1 |  |  | IC90 [3]: 2 nM; IC90 [4]: 38 nM; IC90 [6]: 73 nM; IC90 [7]: 10 nM |
